Positions count from the first letter of the chain named.
Tests used:
[1] = target: T1, DAN-eENTH: epsin 1 ENTH domain variant M10C/C96A/S4W, SEQ ID NO: 2, labeled with DAN at C10 (Homo sapiens, UniProt Q9Y6I3, C96A/M10C/S4W); test: Spectrofluorometry of DAN-eENTH binding to PtdIns(4,5)P2-containing LUVs
T1 construct: The Epsin1 ENTH domain (1-158 amino acids) was subcloned; GST (C, cleaved yes); made in house; host or cells: E. coli BL21 RIL codon plus
T1 sequence (Q9Y6I3 1-158 S4W/M10C/C96A): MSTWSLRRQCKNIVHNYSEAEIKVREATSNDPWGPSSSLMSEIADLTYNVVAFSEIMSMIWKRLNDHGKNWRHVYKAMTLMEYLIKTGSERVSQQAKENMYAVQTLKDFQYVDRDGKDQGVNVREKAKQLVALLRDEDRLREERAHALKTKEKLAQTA
Method: To check the feasibility of PtdIns(4,5)P2 quantification using our sensor, the change in fluorescence emission of DAN-eENTH upon membrane binding was measured by spectrofluorometry.
The theoretic curve was then constructed using these parameters.
Hitachi F-4500 spectrofluorometer was used for all cuvette-based fluorescence measurements. DAN-eENTH (typically 500 nM) was added to POPC/POPS/PtdIns(4,5)P2 (80-x:20:x) (x=0-3 mol %) LUV and the emission spectra of DAN were measured with excitation wavelength set at 392 nm. The same measurements were repeated with LUVs made of different phosphoinositides, e.g., POPC/POPS/PtdIns(3,4,5)P3 (77:20:3).

[2] = target: T1, DAN-eENTH: epsin 1 ENTH domain variant M10C/C96A/S4W, SEQ ID NO: 2, labeled with DAN at C10; test: SPR equilibrium binding of DAN-eENTH to phosphoinositide-containing LUVs
Source text: Provided herein is an ENTH domain of epsin1, which is linked to 2-dimethylamino-6-acyl-naphthalene (DAN). The ENTH domain contains 3 mutations, which are substitutions: M10C, C96A, and S4W. See SEQ ID NO:2. This DAN-eENTH (M10C, C96A, S4W) is an exceptional, high-affinity phosphatidylinositol-4,5-bisphosphate (PtdIns(4,5)P2)-binding protein.
The ENTH domain was engineered to introduce a single labeling site (M10C) on the membrane binding surface while removing an endogenous Cys (C96A). We also performed the S4W mutation to suppress its residual affinity for another lipid, phosphatidylinositol-3,4,5-trisphosphate (PtdIns(3,4,5)P3) (PtdIns(4,5)P2/PtdIns(3,4,5)P3=4 for wild type and >10 for the mutant) and to enhance the overall affinity for PtdIns(4,5)P2-containing membranes (ca. 4-fold) (Table 1).
With respect to FIG. 1, an L1 sensor chip was coated with POPC/POPS/PtdIns(4,5)P2 (77:20:3) LUVs. The proteins were incubated with a given concentration of IP3 for 5 minutes before injecting into the SPR instrument. Kinetic SPR measurements were performed in 20 mM Tris-HCL, pH 7.4, containing 0.16 KCl. […] A lower concentration of DAN-eENTH was used than that of PLCδ PH because the former has much higher affinity that the latter.
All mutations (S4W, M10C, and C96A) were performed by polymerase chain reaction mutagenesis and verified by DNA sequencing. eENTH may comprise the following sequence:
E. coli BL21 RIL codon plus (Stratagene) cells were used for protein expression. Cells were grown in Luria broth media containing 100 μg/ml of ampicillin at 37° C. 0.1 mM of Isopropyl β-D-1-thiogalactopyranoside was added to induce over-expression of recombinant proteins when the OD600 reached 0.5-0.8 and cells were grown for additional 6 to 10 hours at 25° C. Cells were harvested by centrifugation and cell pellets were resuspended in 50 mM Tris-HCl buffer (pH 7.4) containing 160 mM KCl, 1 mM phenylmethanesulphonylfluoride, and 5 mM of dithiothreitol (DTT). Cells were lysed by sonication and the lysate was collected by centrifugation at 4° C. The GST-affinity resin (GenScript) for GST-tagged proteins or nickel-nitrilotriacetic acid resin (Qiagen, Valencia, Calif.) for His6-tagged proteins was added into the cell lysate and the mixture was gently shaken for 30 minutes at 4° C. The mixture was applied to a column and the column was washed once with 50 mM Tris-HCl buffer (pH 7.4) containing 160 mM KCl and 5 mM of DTT to reduce thiol group, and washed several times with the same buffer without DTT to remove DTT. For DAN labeling, 100 μg of acrylodan was added to the column at this stage and incubated 16 hours at 4° C. The excess acrylodan was removed by washing the column with the buffer several times. Thrombin (Invitrogen) was added to column to remove the GST tag and the mixture was incubated at 4° C. for 10 hours. The labeled protein was eluted from the column by and the collected fractions were applied to ion exchange column. Purity and the concentration of the recombinant proteins were determined by sodium dodecylsulfate-polyacrylamide gel electrophoresis and bicinchoninic acid assay, respectively. The DAN labeling yield of eENTH, which was calculated as the molar ratio of DAN (determined spectrophotometrically at 391 nm using its extinction coefficient of 20,000 cm^−1 M^−1) to protein, was typically 60-70%.
LUVs were prepared by extrusion using a 100 nm-pore membrane. GUVs were prepared by electroformation. […]

[3] = target: T2, DAN-eENTH (epsin 1 ENTH domain variant M10C/C96A/S4W, SEQ ID NO: 2, DAN labeled) mutant L6A/R7A/R8A (Homo sapiens, UniProt Q9Y6I3, C96A/L6A/M10C/R7A/R8A/S4W); test: SPR binding of DAN-eENTH-L6A/R7A/R8A to phosphoinositide-containing LUVs; conditions: see Table 1
T2 construct: The Epsin1 ENTH domain (1-158 amino acids) was subcloned; GST (C, cleaved yes); made in house; host or cells: E. coli BL21 RIL codon plus
T2 sequence (Q9Y6I3 with tags, fused parts or gaps C96A): T1 sequence (Q9Y6I3 1-158 S4W/M10C/C96A) with L6A, R7A, R8A

CCCCCCCCCCCCCCCC(=O)OC[C@H](COP(=O)(O)O[C@@H]1[C@H](O)[C@H](O)[C@@H](OP(=O)(O)O)[C@H](OP(=O)(O)O)[C@H]1O)OC(=O)CCCCCCCCCCCCCCC [PtdIns(4,5)P2, phosphatidylinositol-4,5-bisphosphate]
Kd for PtdIns(4,5)P2 (F450/F520 ratiometric analysis) ([1]; F450/F520 versus [PtdIns(4,5)P2], LUVs): 1.2+/−0.2 mol %
Kd for PtdIns(4,5)P2 (F450 analysis) ([1]; F450 versus [PtdIns(4,5)P2], 500 nM DAN-eENTH, LUVs): 1.2+/−0.2 mol %
Kd ([1]; F450 versus [PtdIns(4,5)P2], assumes only half of total lipids available to the sensor, read-out: Kd for PtdIns(4,5)P2 (F450 analysis, converted)): 60 nM
Kd ([2]; SPR, POPC/POPS/PtdIns(4,5)P2 (77:20:3) LUVs, 20 mM Tris-HCl pH 7.4, 0.16 M KCl, read-out: Kd for PtdIns(4,5)P2): 4 nM
affinity for PtdIns(4,5)P2-containing vesicles relative to eENTH ([2]; higher than eENTH): about 3 fold
affinity for PtdIns(4,5)P2-containing vesicles relative to wild type ([2]; higher than the wild type): 12 fold
PtdIns(4,5)P2 affinity [3]: devoid of PtdIns(4,5)P2 affinity

Reference: patent US8686115B2, “Compositions and methods for quantitatively monitoring lipids” (The Board of Trustees of the University of Illinois, priority 2009, dated 2014)
